Source: patent US12285034B2, “Human and non-human animal use of microbial anaplerotic oil” (HELIAE DEVELOPMENT, LLC, priority 2017, dated 2025)
Where two headings read alike, the source gives them in different places.

Tests used:
[1] = tested on: Aurantiochytrium acetophilum HS399; assay: Growth on propionate as sole carbon source (Example 9); assay type: cell-based; conditions: 10 g/L, pH 7
Text: FIG. 35 is a graphical representation of one implementation that illustrates results 3500 of growth of A. acetophilum HS399 with different carbon sources.

[2] = tested on: Aurantiochytrium acetophilum HS399; conditions: for OCFA / Total Fatty Acids: 73 h, 10 L fermenter
Experimental: […] In this implementation, the pH can be maintained at 7±1 in respective treatments.
In one implementation, fermenters may be used to culture A. acetophilum HS399. […] In this implementation, two treatments using different cyanocobalamin concentrations (0.00185, 0 μM) are compared in duplicates.

[3] = tested on: Aurantiochytrium acetophilum HS399; assay: Model of intracellular (cytosolic) propionate, Henderson-Hasselbalch (Example 4)
Text: In one implementation, the change in pH may be calculated with the following equation derived from the Henderson and Hasselbalch equation: […]

[4] = tested on: Aurantiochytrium acetophilum HS399
Experimental: In one implementation, a 250 mL Erlenmeyer flask can be used to cultivate A. acetophilum HS399.
In one implementation, a 250 mL Erlenmeyer flask can be used to cultivate A. acetophilum HS399. […] Cell dry weights may be analyzed using a filtration method. Ammonia can be measured using a Cedex bio-analyzer (Roche). […] The fatty acid profile of the biomass can be analyzed using gas chromatography.

[5] = tested on: Aurantiochytrium acetophilum HS399; remark: listed apart in the source
Experimental: Respective Erlenmeyer flasks (250 mL) can be inoculated (1% v/v) in triplicates with a 24 hour (h) old culture of A. acetophilum HS399 and incubated in an orbital shaker at 180 rpm and 27° C.
In this implementation, the respective Erlenmeyer flasks contain 100 mL of a medium supplemented with (g/L): dextrose (50), ammonium acetate (2.3), NaCl (12.5), MgSO4 7H2O (2.5), KH2PO4 (0.5), KCl (0.5) and CaCl2 (0.1). This medium also contains trace element solution (5 ml/L) and vitamin solution (1 ml/L). The trace element solution contains (g/L): EDTA di-sodium salt (6), FeCl3 6H2O (0.29), […] (6.84), MnCl2 4H2O (0.86), ZnCl2 (0.06), CoCl2 6H2O (0.026), NiSO4 6H2O (0.052), CuSO4 5H2O (0.002), Na2MoO4H2O (0.005). The vitamin solution contains (mg/L): thiamine (100), biotin (0.5) and cyanocobalamin (0.5). All culture materials can be autoclaved (121° C., 15 min) and media can be filter sterilized before use. […] Daily samples can be collected to analyze the cell dry weight, residual glucose, culture pH, lipid and fatty acid composition of the cultures. Cell dry weights are analyzed by vacuum filtration (0.2 μm) and washed with a solution of ammonium bicarbonate. Residual glucose is analyzed using a colorimetric method based on glucose […] activity. Biomass for lipid analysis can be centrifuged and washed using purified water. The washed biomass can be freeze dried. Total lipids are analyzed using the Folch method (AOAC 996.06) and the FAMES are analyzed by gas chromatography using nonadecanoic (C19:0) acid as an internal standard.

[6] = tested on: Aurantiochytrium acetophilum HS399; assay type: cell-based
Text: In another implementation, a New Brunswick 10 L Bioflo Pro 300 fermenter (Eppendorf) can be used to provide an improvement in the productivity of OCFAs accumulation, previously identified in flasks and bubble columns. In this implementation, a bioprocess can be devised to incorporate one or more portions of one or more techniques described herein. […] As an example, in this implementation, the pH-auxostat is operated at a pH set point of 6.5 to mitigate propionic toxicity. […] A control treatment can be provided […] propionate, to be used as comparison. […] The fermenters are aerated at 0.5 vvm and are maintained at 27° C. under axenic conditions. […] This medium can also contain a trace element solution (25 ml/L) and vitamin solution (5 ml/L). The trace element solution contains (g/L): […] In this example, the fermenter is fed another 5-6 L of a medium containing (g/L): ammonium phosphate (2.5), ammonium hydroxide (29% pure) (15.2), corn syrup DE95 (1143). This medium can also contain a trace element solution (25 ml/L) and a vitamin solution (5 ml/L). In this example, this medium is fed in a DO-stat mode in response to dissolved oxygen values detected above 15% saturation. […] The pH is maintained at 5.8 using NaOH, while the batch ammonia is consumed. The pH can drift to higher values when the residual ammonia is substantially exhausted from the fermenter. […] Culture materials and media can be autoclaved (e.g., 121° C., 15 min) while separating the nitrogen and the carbon source. Foam can be controlled (e.g., automatically) through the addition of (<1 ml/L) Hodag antifoam. […] Residual glucose can be analyzed from culture supernatant (e.g., 5000 g; 5 min) using a colorimetric method based on glucose […] activity. Residual acetate and propionate can be analyzed by HPLC using an acceptable external standard.

**Q.** Which “growth on propionate as sole carbon source” value [1] does the source give for `CCC(=O)O` [Propionate, propionic acid] here?
**A.** did not support growth above that of the starved treatment

**Q.** And the “less propionic acid consumed without cyanocobalamin” value ([2]; 10 L fermenters, pH-auxostat, 0 μM vs with cyanocobalamin)?
**A.** 30%

**Q.** And the OCFA ([2]; cyanocobalamin 0 μM)?
**A.** 52.0 % TFA

**Q.** And the “Total Fatty Acids” value ([2]; cyanocobalamin 0 μM)?
**A.** 56.9 % DW

**Q.** And the OCFA ([2]; cyanocobalamin 0.37 μM)?
**A.** 52.6 ± 0.5 % TFA

**Q.** What about the “Total Fatty Acids” value ([2]; cyanocobalamin 0.37 μM) of the same compound?
**A.** 54.7 ± 0.5 % DW

**Q.** And the Propionate deposition ([2]; cyanocobalamin 0 μM)?
**A.** 65.7%

**Q.** And the gpropionate/gbiomass ([2]; cyanocobalamin 0 μM)?
**A.** 0.14

**Q.** And the Propionate deposition ([2]; cyanocobalamin 0.37 μM)?
**A.** 49.9%

**Q.** What about the gpropionate/gbiomass ([2]; cyanocobalamin 0.37 μM) of the same compound?
**A.** 0.18 ± 0.01

**Q.** What about the “time in which initial propionate is consumed” value ([2]; initial 3 g/L, pH 7±1, flask) of the same compound?
**A.** ≤ 72 h

**Q.** And the intracellular propionate concentration ([3]; from 1 g/L, pH 7 (growth inhibitory))?
**A.** 1 g/L

**Q.** And the intracellular propionate concentration ([3]; from ~15 g/L residual, pH 6 (lethal))?
**A.** 176 g/L

**Q.** And the “lethal threshold, Cytosolic Propionate” value ([3]; initial propionate 20 g/L, pH 6.4)?
**A.** 97.7 g/L

**Q.** What about the “D1-D4 Average Internal Propionic Acid (Theoretical Values)” value (from here on “D1-D4 Average Internal Propionic Acid”) ([3]; pH 5 set point) of the same compound?
**A.** 56.70 g/L

**Q.** And the “D1-D4 Average Internal Propionic Acid” value ([3]; pH 6 set point)?
**A.** 4.18 g/L

**Q.** And the “D1-D4 Average Internal Propionic Acid” value ([3]; pH 7 set point)?
**A.** 0.13 g/L

**Q.** And the “lethal threshold, Cytosolic Propionate” value ([3]; pH drift approach, pH 5.3, 2.3 g/L, listed as Propionic acid)?
**A.** 107.5 ± 3.5 g/L

**Q.** What about the “lethal threshold, Cytosolic Propionate” value ([3]; pH drift approach, pH 5.3, 2.3 g/L, listed as propionate) of the same compound?
**A.** 107.5 g/L

**Q.** And the “Propionate deposition” value ([4]; 0 + 3 g/L fed in lipid phase)?
**A.** 58.8 ± 1.9%

**Q.** And the “Propionate deposition” value ([4]; 0 + 3 g/L fed in lipid phase, listed as propionate)?
**A.** 58.8%

**Q.** And the “Propionate deposition” value ([4]; 3 g/L fed in growth phase)?
**A.** 53.0 ± 1.0%

**Q.** And the “Propionate deposition” value ([4]; 3 g/L fed in growth phase, listed as propionate)?
**A.** 53%

**Q.** What about the “OCFA Productivity” value [5] of the same compound?
**A.** 0.81 ± 0.06 g/L/day

**Q.** What about the “concentration strongly inhibitory to growth” value [5] of the same compound?
**A.** 10000 µg/mL

**Q.** And the growth inhibitory concentration [5]?
**A.** 3 g/L

**Q.** And the “substantially lethal residual (extracellular) concentration” value ([5]; pH of 6)?
**A.** ~15 g/L

**Q.** And the OCFA ([5]; propionate 10 g/L, 68 h)?
**A.** 63.1 ± 0.7 % TFA

**Q.** And the “Total Fatty Acids” value ([5]; propionate 10 g/L, 68 h)?
**A.** 42.8 ± 0.9 % DW

**Q.** What about the “Total Lipids” value ([5]; propionate 10 g/L, 68 h) of the same compound?
**A.** 55.3 ± 0.6 % DW

**Q.** What about the OCFA ([5]; propionate 10 g/L, 68 h, listed as propionate) of the same compound?
**A.** 63 % TFA

**Q.** What about the Propionate deposition ([5]; propionate printed 1100 g/L) of the same compound?
**A.** 6.9 ± 0.5%

**Q.** And the effect on growth [6]?
**A.** slightly inhibited

**Q.** And the OCFAs ([6]; propionic acid titration)?
**A.** 60 % TFA

**Q.** And the accumulated lipids ([6]; propionic acid titration)?
**A.** 70 % DW

**Q.** And the average cumulative productivities ([6]; propionic acid titration)?
**A.** approximately 30 g/L/d

**Q.** What about the “productivity of OCFAs” value ([6]; propionic acid titration) of the same compound?
**A.** 10 g/L/day

**Q.** What about the Cell dry weight ([6]; propionic acid titration, 10 L fermenter) of the same compound?
**A.** 170 g/L

**Q.** And the “consumption of propionic per gram of biomass” value ([6]; total consumed during process)?
**A.** 0.155 g
